# Patent US20250296971A1, “GASTRIC INHIBITORY PEPTIDE RECEPTOR LIGANDS” (priority 2021, published 2025)
# Where two headings read alike, the source gives them in different places. *1 amine or outer side, *2 acyl side, *3 side chain or, on linkers, in order; H or OH if unused. Where a SMILES comes first, the peptide text is derived from it. Bridges are numbered along the chain shown (N, C = ends). [ ]: non-standard residue; d: D form. The star is where a group is joined. X5 = NC(=O)[C@H](CCCCNC(=O)CN1CCN(CC(=O)O)CCN(CC(=O)O)CCN(CC(=O)O)CC1)NC(=O)CCC(=O)NCCCOCCOCCOCCCN*; X3 = O=C(O)CN1CCN(CC(=O)O)CCN(CC(=O)NCCCOCCOCCOCCCN*)CCN(CC(=O)O)CC1; X8 = O=C(O)CN1CCN(CC(=O)O)CCN(CC(=O)N2CCN(*)CC2)CCN(CC(=O)O)CC1; Pro(trans-4-NH2) = O=C([C@@H]1C[C@@H](N[*:3])CN1[*:1])[*:2]; DOTA = O=C(O)CN1CCN(CC(=O)O)CCN(CC(=O)*)CCN(CC(=O)O)CC1; Trp(5-Cl) = N[C@@H](Cc1c[nH]c2ccc(Cl)cc12)C(=O)O; Pyridine(2,6-diCH2) = c1cc(C[*:1])nc(C[*:2])c1; X10 = O=C(CN(CC(=O)NC(CO)CO)CC(=O)*)NC(CO)CO; Pro(4S-NH2) = N[C@@H]1CN[C@H](C(=O)O)C1; Pro(4R-NH2) = N[C@H]1CN[C@H](C(=O)O)C1; mXylylene = c1cc(C[*:1])cc(C[*:2])c1; X6 = c1cc(CSCCN[*:2])nc(C[*:1])c1; X7 = c1cc(CSCCN[*:2])cc(C[*:1])c1; Cya = N[C@@H](CS(=O)(=O)O)C(=O)O; Hyp = O=C(O)[C@@H]1C[C@@H](O)CN1; X1 = O=C(CN1CCC(N[*:1])CC1)[*:2]; Suc = O=C(CCC(=O)[*:2])[*:1]; dDap = NC[C@@H](N)C(=O)O; Api = NC1(C(=O)O)CCNCC1; Thp = NC1(C(=O)O)CCOCC1; Aib = CC(C)(N)C(=O)O
# Experiments:
# [1] = biological target: T1, GIPR (CHO-K1-hGIPR cells) (Homo sapiens, UniProt P48546); assay: FACS binding assay; settings: read-out: pIC50 Category (converted)
# T1 construct: host or cells: CHO-K1
# T1 sequence (P48546 22-466): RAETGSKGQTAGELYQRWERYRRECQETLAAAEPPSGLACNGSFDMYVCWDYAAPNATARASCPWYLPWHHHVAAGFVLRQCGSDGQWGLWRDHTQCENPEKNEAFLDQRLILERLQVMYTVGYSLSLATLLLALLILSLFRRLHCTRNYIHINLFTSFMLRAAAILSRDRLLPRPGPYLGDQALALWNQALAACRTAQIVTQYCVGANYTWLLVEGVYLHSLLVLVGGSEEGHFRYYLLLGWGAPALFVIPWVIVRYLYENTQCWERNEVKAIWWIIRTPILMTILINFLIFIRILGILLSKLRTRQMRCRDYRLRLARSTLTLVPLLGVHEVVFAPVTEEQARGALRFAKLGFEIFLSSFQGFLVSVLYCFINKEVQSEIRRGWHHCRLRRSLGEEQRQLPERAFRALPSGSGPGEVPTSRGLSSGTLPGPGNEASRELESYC
# Outline: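 Peptide binding read by flow cytometry as APC-channel median fluorescence, fitted with a four-parameter logistic to yield EC50 or IC50. Cells were hGIPR-transfected CHO-K1 in PBS with 1% FCS, detected with 1 μg/mL APC-streptavidin, 30 min on ice.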
# [2] = biological target: T2, human GIP receptor (bioGIPR) (Homo sapiens, UniProt P48546); assay: Surface plasmon resonance (SPR) based binding assay; settings: Single Cycle Kinetic mode, 25° C.; for t1/2 Category: SPR dissociation half-life; for Kd: SPR, 1:1 Langmuir binding model, read-out: pKD Category (converted)
# T2 construct: Biotinylate extracellular of the human GIP receptor (bioGIPR, Proteros biostructures GmbH, lot #02/2b); purchased Proteros biostructures GmbH lot #02/2b
# T2 sequence (P48546 22-138 limits assumed): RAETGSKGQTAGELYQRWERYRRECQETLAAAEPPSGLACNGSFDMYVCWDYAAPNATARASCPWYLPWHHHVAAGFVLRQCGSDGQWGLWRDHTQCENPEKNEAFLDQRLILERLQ
# Experimental: Surface plasmon resonance (SPR) studies were performed using a Biacore™ T200 SPR system. Briefly, polarized light is directed towards a gold-labeled sensor surface, and minimum intensity reflected light is detected. The angle of reflected light changes as molecules bind and dissociate.
# Biotinylate extracellular of the human GIP receptor (bioGIPR, Proteros biostructures GmbH, lot #02/2b) was captured on a biotin capture chip (Biotin CAPture Kit, Series S, GE Healthcare, Cat #28-9202-34). bioGIPR was diluted in Running Buffer (HBST from Xantec Analytics; […], 0.05% Tween20, 0.1% DMSO) to a final concentration 100 nM and than flushed over the Fc-capture chip to immobilized ˜3500 RUs.
# Stock solutions of test compounds were prepared by dissolving each compound in DMSO. DMSO stock solution were diluted 1:1000 in Running Buffer without DMSO. Further sequential dilutions were made with Running Buffer containing 0.1% DMSO. SPR binding analyses were performed in Single Cycle Kinetic (SCK) mode at 25° C. Flow cell without immobilized bioGIPR served as reference flowcell. After each SCK run, bioGIRP and the Biotin Capture Reagent was removed with Regeneration Solution (6 M Guanidium, 0.75 M NaOH).
# In between every three SCK measurements, a blank run with Running Buffer instead of test compound was included to correct for baseline drifts (double blanking method).
# For each test compound, SPR raw data in the form of resonance units (RU) were plotted as sensorgrams using the Biacore™ T200 control software. The signal from the blank sensorgram was subtracted from that of the test compound sensorgram (blank corrected). The blank corrected sensorgram was corrected for baseline drift by subtracting the sensorgram of a SCK run without the test compound (running buffer only). The association rate (kon), dissociation rate (koff), dissociation constant (KD), and t1/2 were calculated from blank corrected SPR data using the 1:1 Langmuir binding model from the Biacore™ T200 evaluation software. Raw data and fit results were imported as text files in IDBS. The pKD value (negative decadic logarithm of dissociation constant) was calculated in the IDBS excel template.
# [3] = competition with 20 nM GIP-057, 4° C., 1 hour
SMILES,"IC50 [1, 3] [nM]",t1/2 Category [2],Kd [2] [nM],"IC50 ([1]; competition with 20 nM GIP-057, 4° C. for 1 hour) [nM]"
"CC[C@H](C)[C@@H]1NC(=O)[C@H](CC(C)C)NC(=O)C(C)(C)NC(=O)[C@@H](NC(=O)[C@@H](CC(C)C)NC(=O)[C@H](CCC(=O)O)NC(=O)[C@@H]2CCCN2C(=O)[C@H](Cc2c[nH]c3ccc(Cl)cc23)NC(=O)[C@H](Cc2c[nH]c3ccccc23)NC(=O)[C@H](CC(=O)O)NC(C)=O)CSCc2cccc(c2)CSC[C@@H](C(=O)NCCCOCCOCCOCCCNC(=O)CCC(=O)N[C@@H](CCCCNC(=O)CN2CCN(CC(=O)O)CCN(CC(=O)O)CCN(CC(=O)O)CC2)C(N)=O)NC1=O [GIP-079, Ac-Asp-Trp-5Clw-Pro-Glu-leu-[Cys(3MeBn)-Aib-Leu-Ile-Cys]-Ttds-Lys(DOTA)-NH2] (Ac-DW[Trp(5-Cl)]PE[dL]C[Aib]LIC-X5; linker 7-11 via mXylylene)",< 10,A (t1/2 values>15 min),< 1,–
"CC[C@H](C)[C@@H]1NC(=O)[C@H](CC(C)C)NC(=O)C2(CCN(C(=O)CN3CCN(CC(=O)O)CCN(CC(=O)O)CCN(CC(=O)O)CC3)CC2)NC(=O)[C@@H](NC(=O)[C@@H](CC(C)C)NC(=O)[C@H](CCC(=O)O)NC(=O)[C@@H]2C[C@@H](N)CN2C(=O)[C@H](Cc2c[nH]c3ccc(Cl)cc23)NC(=O)[C@H](Cc2c[nH]c3ccccc23)NC(=O)[C@H](CC(=O)O)NC(=O)CN(CC(=O)NC(CO)CO)CC(=O)NC(CO)CO)CSCc2cccc(n2)CSC[C@@H](C(=O)NC2CCN(CC(=O)N[C@H](CNC(=O)CN(CC(=O)NC(CO)CO)CC(=O)NC(CO)CO)C(N)=O)CC2)NC1=O [GIP-373, NTASEROL-Asp-Trp-5Clw-Tap-Glu-leu-[Cys(2Lut)-Apc(DOTA)-Leu-Ile-Cys]-APAc-dap(NTASEROL)-NH2] (X10-DW[Trp(5-Cl)][Pro(4R-NH2)]E[dL]C[Api](DOTA)LIC[X1][dDap](X10)-NH2; linker 7-11 via Pyridine(2,6-diCH2))",–,A (t1/2 values>15 min),< 1,< 10
"CC[C@H](C)[C@@H]1NC(=O)[C@H](CC(C)C)NC(=O)C2(CCN(C(C)=O)CC2)NC(=O)[C@@H](NC(=O)[C@@H](CC(C)C)NC(=O)[C@H](CCC(=O)O)NC(=O)[C@@H]2CCCN2C(=O)[C@H](Cc2c[nH]c3ccc(Cl)cc23)NC(=O)[C@H](Cc2c[nH]c3ccccc23)NC(=O)[C@H](CC(=O)O)NC(=O)CCC(=O)NCCCOCCOCCOCCCNC(=O)CN2CCN(CC(=O)O)CCN(CC(=O)O)CCN(CC(=O)O)CC2)CSCc2cccc(c2)CSCCNC1=O [GIP-097, DOTA-Ttds-Asp-Trp-5Clw-Pro-Glu-leu-[Cys(3MeBn)-Apc(Ac)-Leu-Ile-AET]] ({X3-Suc}-DW[Trp(5-Cl)]PE[dL]C[Api](Ac)LI; linker 7-C via X7)",< 10,A (t1/2 values>15 min),< 1,–
"CC[C@H](C)[C@@H]1NC(=O)[C@H](CC(C)C)NC(=O)C2(CCOCC2)NC(=O)[C@@H](NC(=O)[C@@H](CC(C)C)NC(=O)[C@H](CCC(=O)O)NC(=O)[C@@H]2C[C@@H](NC(=O)CN3CCN(CC(=O)O)CCN(CC(=O)O)CCN(CC(=O)O)CC3)CN2C(=O)[C@H](Cc2c[nH]c3ccc(Cl)cc23)NC(=O)[C@H](Cc2c[nH]c3ccccc23)NC(=O)[C@H](CC(=O)O)NC(C)=O)CSCc2cccc(n2)CSC[C@@H](C(N)=O)NC1=O [GIP-121, Ac-Asp-Trp-5Clw-Tap(DOTA)-Glu-leu-[Cys(2Lut)-Thp-Leu-Ile-Cys]-NH2] (Ac-DW[Trp(5-Cl)][Pro(trans-4-NH2)](DOTA)E[dL]C[Thp]LIC-NH2; linker 7-11 via Pyridine(2,6-diCH2))",< 10,A (t1/2 values>15 min),< 1,–
"CC[C@H](C)[C@@H]1NC(=O)[C@H](CC(C)C)NC(=O)C(C)(C)NC(=O)[C@@H](NC(=O)[C@@H](CC(C)C)NC(=O)[C@H](CCC(=O)O)NC(=O)[C@@H]2C[C@H](N)CN2C(=O)[C@H](Cc2c[nH]c3ccc(Cl)cc23)NC(=O)[C@H](Cc2c[nH]c3ccccc23)NC(=O)[C@H](CC(=O)O)NC(=O)CCC(=O)NCCCOCCOCCOCCCNC(=O)CN2CCN(CC(=O)O)CCN(CC(=O)O)CCN(CC(=O)O)CC2)CSCc2cccc(c2)CSCCNC1=O [GIP-096, DOTA-Ttds-Asp-Trp-5Clw-4Ap-Glu-leu-[Cys(3MeBn)-Aib-Leu-Ile-AET]] ({X3-Suc}-DW[Trp(5-Cl)][Pro(4S-NH2)]E[dL]C[Aib]LI; linker 7-C via X7)",< 10,A (t1/2 values>15 min),< 1,–
"CC[C@H](C)[C@@H]1NC(=O)[C@H](CC(C)C)NC(=O)C(C)(C)NC(=O)[C@@H](NC(=O)[C@@H](CC(C)C)NC(=O)[C@H](CCC(=O)O)NC(=O)[C@@H]2C[C@@H](N)CN2C(=O)[C@H](Cc2c[nH]c3ccc(Cl)cc23)NC(=O)[C@H](Cc2c[nH]c3ccccc23)NC(=O)[C@H](CC(=O)O)NC(=O)CCC(=O)NCCCOCCOCCOCCCNC(=O)CN2CCN(CC(=O)O)CCN(CC(=O)O)CCN(CC(=O)O)CC2)CSCc2cccc(c2)CSCCNC1=O [GIP-095, DOTA-Ttds-Asp-Trp-5Clw-Tap-Glu-leu-[Cys(3MeBn)-Aib-Leu-Ile-AET]] ({X3-Suc}-DW[Trp(5-Cl)][Pro(4R-NH2)]E[dL]C[Aib]LI; linker 7-C via X7)",< 10,A (t1/2 values>15 min),< 1,–
"CC[C@H](C)[C@@H]1NC(=O)[C@H](CC(C)C)NC(=O)C2(CCOCC2)NC(=O)[C@@H](NC(=O)[C@@H](CC(C)C)NC(=O)[C@H](CCC(=O)O)NC(=O)[C@@H]2C[C@@H](O)CN2C(=O)[C@H](Cc2c[nH]c3ccc(Cl)cc23)NC(=O)[C@H](Cc2c[nH]c3ccccc23)NC(=O)CCC(=O)O)CSCc2cccc(n2)CSC[C@@H](C(=O)N2CCN(C(=O)CN3CCN(CC(=O)O)CCN(CC(=O)O)CCN(CC(=O)O)CC3)CC2)NC1=O [GIP-118, HO-Succinyl-Trp-5Clw-Hyp-Glu-leu-[Cys(2Lut)-Thp-Leu-Ile-Cys]-PP-DOTA] (Suc-W[Trp(5-Cl)][Hyp]E[dL]C[Thp]LIC-X8; linker 6-10 via Pyridine(2,6-diCH2))",< 10,A (t1/2 values>15 min),< 1,–
"CC[C@H](C)[C@@H]1NC(=O)[C@H](CC(C)C)NC(=O)C(C)(C)NC(=O)[C@@H](NC(=O)[C@@H](CC(C)C)NC(=O)[C@H](CCC(=O)O)NC(=O)[C@@H]2C[C@@H](O)CN2C(=O)[C@H](Cc2c[nH]c3ccc(Cl)cc23)NC(=O)[C@H](Cc2c[nH]c3ccccc23)NC(=O)[C@H](CS(=O)(=O)O)NC(C)=O)CSCc2cccc(n2)CSCCNC1=O [GIP-179, Ac-Cya-Trp-5Clw-Hyp-Glu-leu-[Cys(2Lut)-Aib-Leu-Ile-AET]] (Ac-[Cya]W[Trp(5-Cl)][Hyp]E[dL]C[Aib]LI; linker 7-C via X6)",< 10,–,< 1,–
"CC[C@H](C)[C@@H]1NC(=O)[C@H](CC(C)C)NC(=O)C2(CCNCC2)NC(=O)[C@@H](NC(=O)[C@@H](CC(C)C)NC(=O)[C@H](CCC(=O)O)NC(=O)[C@@H]2C[C@@H](N)CN2C(=O)[C@H](Cc2c[nH]c3ccc(Cl)cc23)NC(=O)[C@H](Cc2c[nH]c3ccccc23)NC(=O)[C@H](CC(=O)O)NC(=O)CCC(=O)NCCCOCCOCCOCCCNC(=O)CN2CCN(CC(=O)O)CCN(CC(=O)O)CCN(CC(=O)O)CC2)CSCc2cccc(c2)CSCCNC1=O [GIP-112, DOTA-Ttds-Asp-Trp-5Clw-Tap-Glu-leu-[Cys(2Lut)-Apc-Leu-Ile-AET]] ({X3-Suc}-DW[Trp(5-Cl)][Pro(4R-NH2)]E[dL]C[Api]LI; linker 7-C via X7)",< 10,A (t1/2 values>15 min),< 1,–
